# Results published in patent publication US20140120060A1, “TREATMENT OF RHEUMATOID ARTHRITIS AND ASTHMA USING PI3 KINASE INHIBITORS” (INFINITY PHARMACEUTICALS, INC., priority 2012, published 2014).
# pEC50: −log10 of the molar value. “Also recorded” adds a separate entry of the source. Like-named read-outs stand apart in the source and are kept apart here.
# Columns and labels:
# [1] = 13-week repeat-dose safety study in rats; settings: both sexes, in vivo, oral; rat, Day 91, combined sexes, 25 mg/kg/day; read-out: mean AUC0-24 hr at the NOAEL
# Protocol: The no observed adverse effect level (NOAEL) in the 13-week rat study was 25 mg/kg/day (150 mg/m^2/day) and the NOAEL in the 13-week monkey study was 5 mg/kg/day (60 mg/m^2/day). On Day 91, the mean AUC0-24 hr values for combined sexes at the NOAELs were 14150 ng*h/mL in the rat, and 4015 ng*h/mL in the monkey.
# Human B-cell = Human B-cell proliferation; format: cell-based
# [2] = In vivo rat micronucleus assay
# hERG channel current = hERG channel current (Homo sapiens, UniProt Q12809); assay: In vitro hERG assay; format: cell-based
# neutrophil migration = assay: Neutrophil migration into rat air pouches stimulated with IL-8; format: in vivo
# Text: In one embodiment, provided herein is a method for screening for anti-inflammatory or anti-asthma compound in an animal (e.g., rat) pouch assay. In one embodiment, provided herein is a method for screening for anti-inflammatory or anti-asthma compound comprising (a) creating a pouch at the back of an animal (e.g., rat) and introducing a stimuli into the pouch; (b) administrating a compound to the animal; (c) measuring the influx of leukocyte (e.g., neutrophil and/or eosinophil) into the pouch; and (d) comparing the influx of leukocyte to that of a control vehicle; wherein a reduction in the influx of leukocyte indicates the compound is an anti-inflammatory or anti-asthma compound.
# The ability of PI3K-δ,γ inhibitors to block leukocyte (e.g., neutrophil) migration was examined in a rat air pouch model. Air pouches were created by subcutaneous air injections into the back of the rats on Days 0 and 3. […] Animals dosed with vehicle only, with or without IL-8 stimulation, served as study controls.
# [3] = Plasma protein binding, monkey plasma; format: in vitro ADME; settings: 100 μM (41700 ng/mL)
# Text: (§1) […]. […] […].
# [4] = tested on: established type II collagen-induced arthritis; assay: Rat collagen-induced arthritis model (established); format: in vivo
# Protocol: Etanercept (10 mg/kg) was administered subcutaneously on days 10 and 13 as a positive control. The study was terminated on day 17.
# central nervous system = assay: Neurofunctional study (FOB, motor activity) in Sprague-Dawley rat; settings: male rats
# [5] = Plasma protein binding, human plasma; format: in vitro ADME
# Text: as §1
# [6] = tested on: developing adjuvant arthritis; assay: Freund's complete adjuvant induced rat model of arthritis; format: in vivo
# Text: Freund's complete adjuvant induced arthritis in the rat is an experimental model of polyarthritis that has been widely used for nonclinical testing of numerous anti-arthritic agents that are either under nonclinical or clinical investigation, or are currently used as therapeutics in this disease.
# [7] = Pharmacokinetics in cynomolgus monkeys; format: in vivo, monkey
# [8] = Clinical study in healthy adult subjects: pharmacokinetics; format: in vivo, human; settings: for half-life / AUC(0-t) / AUC(0-inf) / Cmax / Vd/F: human, plasma; for Vd/F: read-out: Vz/F
# TLR9 = assay: CPG-A induced cytokine production in PBMCs; format: cell-based, human
# Protocol: Human PBMCs were stimulated with CPG-A. CPG-A selectively activates PDCs, inducing IFN-α production via TLR9. IFN-α is a PDC cell selective readout. Primary human PBMCs from two normal human donors were used as a source of PDC cells. 200 K cells per well were used. […] Then the cells were treated with the specified concentration of CPG-A for 16 hours. RPMI-5% serum was employed.
# These experiments were conducted using PBMCs.
# [9] = monkey, in vivo, cynomolgus monkeys, IV 1 mg/kg
# [10] = monkey, in vivo, cynomolgus monkeys, PO 5 mg/kg suspension
# [11] = DDI portion, 10 mg with 200 mg q12h ketoconazole
# [12] = single oral dose 1 mg, mean (%CV)
# [13] = single oral dose 2 mg, mean (%CV)
# [14] = single oral dose 5 mg, mean (%CV)
# [15] = single oral dose 10 mg, mean (%CV)
# [16] = single oral dose 20 mg, mean (%CV)
# [17] = single oral dose 30 mg, mean (%CV)
# hERG channel current, sequence (Q12809 whole entry): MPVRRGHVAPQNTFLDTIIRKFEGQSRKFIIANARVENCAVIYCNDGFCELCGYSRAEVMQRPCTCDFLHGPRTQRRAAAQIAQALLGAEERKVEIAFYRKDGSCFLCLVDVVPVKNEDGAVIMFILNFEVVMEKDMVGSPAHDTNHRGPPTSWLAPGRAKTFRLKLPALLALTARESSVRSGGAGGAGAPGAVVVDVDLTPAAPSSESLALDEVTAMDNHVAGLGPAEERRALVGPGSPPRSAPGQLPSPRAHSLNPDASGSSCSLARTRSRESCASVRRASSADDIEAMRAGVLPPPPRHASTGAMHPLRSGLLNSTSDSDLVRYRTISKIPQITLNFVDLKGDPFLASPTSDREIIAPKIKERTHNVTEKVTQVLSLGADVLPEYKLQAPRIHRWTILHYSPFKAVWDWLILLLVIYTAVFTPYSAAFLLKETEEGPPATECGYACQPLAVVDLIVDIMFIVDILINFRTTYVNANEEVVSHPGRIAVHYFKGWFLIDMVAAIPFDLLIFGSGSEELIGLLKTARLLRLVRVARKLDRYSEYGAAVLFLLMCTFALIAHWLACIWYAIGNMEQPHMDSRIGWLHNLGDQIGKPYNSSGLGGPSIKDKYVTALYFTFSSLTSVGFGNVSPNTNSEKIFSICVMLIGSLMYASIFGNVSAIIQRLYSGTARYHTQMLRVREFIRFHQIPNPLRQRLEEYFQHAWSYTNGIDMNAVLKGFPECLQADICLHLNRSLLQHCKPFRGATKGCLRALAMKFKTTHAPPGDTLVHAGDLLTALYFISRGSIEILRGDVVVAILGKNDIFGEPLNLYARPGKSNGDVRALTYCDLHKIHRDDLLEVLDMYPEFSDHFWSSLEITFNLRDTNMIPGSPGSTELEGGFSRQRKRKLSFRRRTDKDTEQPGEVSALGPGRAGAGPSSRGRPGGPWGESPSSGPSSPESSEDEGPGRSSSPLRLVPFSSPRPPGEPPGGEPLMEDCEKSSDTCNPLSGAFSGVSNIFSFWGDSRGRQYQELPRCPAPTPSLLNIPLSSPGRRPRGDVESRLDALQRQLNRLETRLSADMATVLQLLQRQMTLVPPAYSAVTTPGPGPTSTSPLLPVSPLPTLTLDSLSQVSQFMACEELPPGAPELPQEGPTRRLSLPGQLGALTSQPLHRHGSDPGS
smiles,measurement,setting,value
C[C@H](Nc1ncnc2[nH]cnc12)c1cc2cccc(Cl)c2c(=O)n1-c1ccccc1 [Compound 292],AUC(0-t),[1],14200 ng·h/mL
same,pEC50,Human B-cell,9.30
same,adverse effect in micronucleus assay,[2],no direct adverse effect
same,Hill coefficient (hERG),hERG channel current,1.3
same,IC50 on hERG potassium current,hERG channel current,20800 ng/mL
same,neutrophil influx into IL-8 stimulated air pouches,neutrophil migration; 1 mg/kg PO,only slightly
same,neutrophil influx into IL-8 stimulated air pouches,neutrophil migration; 10 and 25 mg/kg PO,inhibits; also recorded: significantly blocked
same,protein bound in monkey plasma,[3],76.8%
same,mean ankle diameter at the end of the treatment period vs vehicle,"[4]; PO QD days 10-16, all doses 0.5-10 mg/kg, not at 0.1 mg/kg",significantly decreased
same,serum IgE levels vs vehicle controls,[4]; rat CIA model,Significant increases
same,summed ankle histological scores,[4]; rat CIA model,prevented inflammation and protected joint bone and cartilage
same,locomotor activity,central nervous system; 2 h after a 350 mg/kg dose,Significant decreases
same,effects on the central nervous system,central nervous system; dose levels ≦50 mg/kg,No effects
same,qualitative or quantitative FOB parameters,"central nervous system; single oral dose up to 350 mg/kg, up to 24 h post-dose",no changes
same,protein bound in human plasma,[5],95%
same,protein bound in human plasma,[5]; 100 μM (41700 ng/mL),85.9%
same,reduction of final paw weights,[6]; 5 mg/kg BID,30%
same,reduction of histopathologic bone resorption,[6]; 5 mg/kg BID,72%
same,reduction of histopathologic inflammation,[6]; 5 mg/kg BID,18%
same,inhibition of ankle diameter AUC (d7-14) increase,[6]; 5 mg/kg BID PO days 5-14,24%
same,reduction of final paw weights,[6]; 10 mg/kg QD,23%
same,reduction of histopathologic bone resorption,[6]; 10 mg/kg QD,67%
same,reduction of histopathologic inflammation,[6]; 10 mg/kg QD,15%
same,inhibition of ankle diameter AUC (d7-14) increase,[6]; 10 mg/kg QD PO days 5-14,31%
same,reduction of final paw weights,[6]; 50 mg/kg QD,98%
same,reduction of histopathologic bone resorption,[6]; 50 mg/kg QD,100%
same,reduction of histopathologic inflammation,[6]; 50 mg/kg QD,88%
same,inhibition of ankle diameter AUC (d7-14) increase,[6]; 50 mg/kg QD PO days 5-14,95%
same,Foral,"[7]; cynomolgus monkeys, PO 5 mg/kg suspension",40%
same,AUC(0-inf),[7]; [9],2380 ng·h/mL
same,AUC(0-t),[7]; [9],2360 ng·h/mL
same,Tmax,[7]; [9],4.98 min
same,clearance,[7]; [9],7.17 mL/min/kg
same,half-life,"[7]; monkey, in vivo, cynomolgus monkeys, IV 1 mg/kg, read-out: T1/2 (converted)",300 min
same,Vd,"[7]; monkey, in vivo, cynomolgus monkeys, IV 1 mg/kg, read-out: Vss",1.27 L/kg
same,AUC(0-inf),[7]; [10],4680 ng·h/mL
same,AUC(0-t),[7]; [10],4600 ng·h/mL
same,Cmax,[7]; [10],1330 ng/mL
same,Tmax,[7]; [10],90 min
same,half-life,"[7]; monkey, in vivo, cynomolgus monkeys, PO 5 mg/kg suspension, read-out: T1/2 (converted)",324 min
same,half-life,"[7]; monkey, in vivo, monkeys, read-out: half-life (converted)",300 min
same,excretion of unchanged compound in urine,[8],< 2 % of the administered dose
same,time to peak plasma concentrations,[8],0.5 to 1 h
same,accumulation,[8]; 14 days of Q12 h oral administration,less than 2 fold
same,increase of AUC0-inf in the presence of ketoconazole,[8]; [11],~295%
same,increase of AUC0-last in the presence of ketoconazole,[8]; [11],~285%
same,increase of Cmax in the presence of ketoconazole,[8]; [11],approximately 66%
same,decrease of Cmax in the presence of a high fat meal,"[8]; food effect portion, 25 mg",approximately 10%
same,half-life,"[8]; oral, following a single dose, read-out: half-life",210 to 570 min
same,AUC(0-t),"[8]; po, 1 mg, single oral dose 1 mg, mean (%CV), read-out: AUC(0-24)",149 ng·h/mL
same,AUC(0-t),"[8]; po, 1 mg, single oral dose 1 mg, mean (%CV), read-out: AUC(0-t)",148 ng·h/mL
same,half-life,"[8]; po, 1 mg, single oral dose 1 mg, mean (%CV), read-out: T1/2 (converted)",211 min
same,AUC(0-t),"[8]; po, 2 mg, single oral dose 2 mg, mean (%CV), read-out: AUC(0-24)",289 ng·h/mL
same,AUC(0-t),"[8]; po, 2 mg, single oral dose 2 mg, mean (%CV), read-out: AUC(0-t)",291 ng·h/mL
same,half-life,"[8]; po, 2 mg, single oral dose 2 mg, mean (%CV), read-out: T1/2 (converted)",326 min
same,AUC(0-t),"[8]; po, 5 mg, single oral dose 5 mg, mean (%CV), read-out: AUC(0-24)",733 ng·h/mL
same,AUC(0-t),"[8]; po, 5 mg, single oral dose 5 mg, mean (%CV), read-out: AUC(0-t)",735 ng·h/mL
same,half-life,"[8]; po, 5 mg, single oral dose 5 mg, mean (%CV), read-out: T1/2 (converted)",326 min
same,AUC(0-t),"[8]; po, 10 mg, single oral dose 10 mg, mean (%CV), read-out: AUC(0-24)",891 ng·h/mL
same,AUC(0-t),"[8]; po, 10 mg, single oral dose 10 mg, mean (%CV), read-out: AUC(0-t)",905 ng·h/mL
same,half-life,"[8]; po, 10 mg, single oral dose 10 mg, mean (%CV), read-out: T1/2 (converted)",568 min
same,AUC(0-t),"[8]; po, 20 mg, single oral dose 20 mg, mean (%CV), read-out: AUC(0-24)",2190 ng·h/mL
same,AUC(0-t),"[8]; po, 20 mg, single oral dose 20 mg, mean (%CV), read-out: AUC(0-t)",2240 ng·h/mL
same,half-life,"[8]; po, 20 mg, single oral dose 20 mg, mean (%CV), read-out: T1/2 (converted)",467 min
same,AUC(0-t),"[8]; po, 30 mg, single oral dose 30 mg, mean (%CV), read-out: AUC(0-24)",3260 ng·h/mL
same,AUC(0-t),"[8]; po, 30 mg, single oral dose 30 mg, mean (%CV), read-out: AUC(0-t)",3380 ng·h/mL
same,half-life,"[8]; po, 30 mg, single oral dose 30 mg, mean (%CV), read-out: T1/2 (converted)",487 min
same,AUC(0-inf),[8]; [12],151 ng·h/mL
same,Cmax,[8]; [12],43.4 ng/mL
same,Vd/F,[8]; [12],38.8 L
same,AUC(0-inf),[8]; [13],296 ng·h/mL
same,Cmax,[8]; [13],78.8 ng/mL
same,Vd/F,[8]; [13],57.9 L
same,AUC(0-inf),[8]; [14],743 ng·h/mL
same,Cmax,[8]; [14],246 ng/mL
same,Vd/F,[8]; [14],53 L
same,AUC(0-inf),[8]; [15],914 ng·h/mL
same,Cmax,[8]; [15],454 ng/mL
same,Vd/F,[8]; [15],147 L
same,AUC(0-inf),[8]; [16],2250 ng·h/mL
same,Cmax,[8]; [16],997 ng/mL
same,Vd/F,[8]; [16],99.1 L
same,AUC(0-inf),[8]; [17],3400 ng·h/mL
same,Cmax,[8]; [17],1140 ng/mL
same,Vd/F,[8]; [17],113 L
same,CPG-A induced IL-6 production,TLR9; PBMCs,Inhibited
same,CPG-A induced IL-8 production,TLR9; PBMCs,Inhibited
same,CPG-A induced TNF-α production,TLR9; PBMCs,Inhibited
same,CPG-A induced IFN-α production,TLR9; human PBMCs,potently inhibited; also recorded: blocked
